In patent publication US7029846B2, “Site-specific protein modification” (University of Medicine and Dentistry of New Jersey, priority 2000, dated 2006):
Starred links: 1 amine or outer side, 2 acyl side, 3 side chain; linkers in the order of their positions; H or OH if unused. Non-standard residues stand in square brackets, D forms with d. No end group written: not given here. Tyr(3-Ac) = 3-acetyl-tyrosine, CC(=O)c1cc(C[C@H](N[*:1])C(=O)[*:2])ccc1O[*:3]

Target: rhodamine labeled TAR RNA (TAR-Rh)
Assay: FRET fluorescence quenching titration of fluorescein labeled Tat peptide with rhodamine labeled TAR RNA
Format: binding, HIV-1
Conditions: quenching of Tat-Fl (5 nM) emission at 512 nm with increasing TAR-Rh, 50 mM Tris-HCl, pH 7.4 at 25° C., 20 mM KCl, fit to quadratic equation (1), read-out: dissociation constant (KD)
Protocol: FIG. 2(B). Fluorescence intensity of Tat-Fl (5 nM) at 512 nm in the presence of increasing TAR-Rh concentrations. The solid line represents the best fits of the data by nonlinear regression to quadratic equation (1). The fluorescence measurements were performed on PTI fluorescence spectrophotometer controlled by Felix software. The excitation wavelength was 492 nm and slits width was set 3.5 nm for both excitation and emission. All samples were corrected for the light source excitation effect and for the background intensity of buffer fluorescence as well as for dilution factors. Buffer conditions: […] Tris-HCl, pH 7.4 at 25° C., 20 mM KCl.
To determine the binding affinities of a Tat peptide under physiological conditions and test the application of acetyl-Tyr, we developed a fluorescence resonance energy transfer (FRET) system containing TAR RNA and a Tat peptide uniquely labeled with donor and acceptor dye molecules (FIG. 1). […] (Clegg, R. M. (1992) Fluorescence resonance energy transfer and nucleic acids, Methods Enzymol. 211, 353–88; Yang, M., and Millar, D. P. (1997) Fluorescence resonance energy transfer as a probe of DNA structure and function, Methods Enzymol. 278, 417–444). The donor's lifetime and quantum yield are reduced upon energy transfer, and the acceptor fluorescence is increased, or sensitized. […]

Acetyl-Tyr-Tat peptide: HIV-1 Tat peptide (amino acids 47–56) with Tyr-47 replaced by 3-Acetyl-Tyrosine ([Tyr(3-Ac)]GRKKRRQRR)
Kd: 1 ± 0.5 nM
